{"source": "patent US20110150836A1", "about": "“METHODS OF TREATING HBV AND HCV INFECTION” (Gilead Sciences, Inc., priority 2009, published 2011)", "test_system": "cytokines and interferon-inducible genes", "assay": "mRNA expression of cytokines and interferon-inducible genes in whole blood of healthy woodchucks (real time PCR)", "assay_type": "in vivo", "procedure": "Compound A was administered orally to adult, WHV-negative woodchucks at two different doses. Three male woodchucks received Compound A at 0.05 mg/kg and three other male woodchucks at 0.5 mg/kg. Whole blood samples (4 mls) were collected from each woodchuck prior to dosing at T0, and then at 4, 8, 12, and 24 hours post-dose using EDTA-containing collection tubes.\nThe induction of an immune response in woodchucks following administration of Compound A was determined by measuring the mRNA expression of cytokines and interferon-inducible genes in whole blood samples collected at different time points. Total RNA was isolated using the QIAamp RNA Blood Mini Kit (Qiagen) according to the manufacturer's specifications. RNA was eluted into 40 μl nuclease-free water and stored at −70° C. The concentration of RNA was determined spectrophotometrically at OD 260 nm. Two μg of RNA were treated with DNase I (Invitrogen) and reverse transcribed to cDNA with MultiScribe Reverse Transcriptase (Applied Biosystems) using random hexamers. Triplicates of 2 μl cDNA were amplified by real time PCR on an ABI PRISM 7000 Sequence Detection instrument (Applied Biosystems) using SYBR GREEN Master Mix (Applied Biosystems) and woodchuck-specific primers. Amplified target genes included IFN-α, IFN-γ, TNF-α, IL-2, IL-6, IL-10 IL-12, 2′5′-OAS, IDO, and MxA. Woodchuck β-actin mRNA expression was used to normalize target gene expression. Transcription levels of woodchuck cytokines and interferon-inducible genes were represented by the formula 2ΔCt, where ΔCt indicates the difference in the threshold cycle between β-actin and target gene expression. Results were further represented as a fold-change from the transcription level at T0."}
{"compound": "CCCCOc1nc(N)c2nc(O)n(Cc3cccc(CN4CCCC4)c3)c2n1", "note": "[Compound A, 6-amino-2-butoxy-9-(3-(pyrrolidin-1-ylmethyl)benzyl)-9H-purin-8-ol]", "values": [{"measurement": "2′5′-OAS mRNA expression in peripheral blood, Mean", "setting": "oral 0.05 mg/kg, 4 hrs", "result": 13.89}, {"measurement": "2′5′-OAS mRNA expression, Fold-change from T0", "setting": "oral 0.05 mg/kg, 4 hrs", "result": 3.8, "unit": "fold"}, {"measurement": "IDO mRNA expression in peripheral blood, Mean", "setting": "oral 0.05 mg/kg, 4 hrs", "result": 1.30}, {"measurement": "IDO mRNA expression, Fold-change from T0", "setting": "oral 0.05 mg/kg, 4 hrs", "result": 1.1, "unit": "fold"}, {"measurement": "IFN-a mRNA expression in peripheral blood, Mean", "setting": "oral 0.05 mg/kg, 4 hrs", "result": 7.21}, {"measurement": "IFN-a mRNA expression, Fold-change from T0", "setting": "oral 0.05 mg/kg, 4 hrs", "result": 3.1, "unit": "fold"}, {"measurement": "IFN-γ mRNA expression in peripheral blood, Mean", "setting": "oral 0.05 mg/kg, 4 hrs", "result": 2.03}, {"measurement": "IFN-γ mRNA expression, Fold-change from T0", "setting": "oral 0.05 mg/kg, 4 hrs", "result": 1.6, "unit": "fold"}, {"measurement": "IL-2 mRNA expression in peripheral blood, Mean", "setting": "oral 0.05 mg/kg, 4 hrs", "result": 2.11}, {"measurement": "IL-2 mRNA expression, Fold-change from T0", "setting": "oral 0.05 mg/kg, 4 hrs", "result": 1.9, "unit": "fold"}, {"measurement": "IL-6 mRNA expression in peripheral blood, Mean", "setting": "oral 0.05 mg/kg, 4 hrs", "result": 9.75}, {"measurement": "IL-6 mRNA expression, Fold-change from T0", "setting": "oral 0.05 mg/kg, 4 hrs", "result": 2.3, "unit": "fold"}, {"measurement": "IL-10 mRNA expression in peripheral blood, Mean", "setting": "oral 0.05 mg/kg, 4 hrs", "result": 4.14}, {"measurement": "IL-10 mRNA expression, Fold-change from T0", "setting": "oral 0.05 mg/kg, 4 hrs", "result": 1.7, "unit": "fold"}, {"measurement": "IL-12 mRNA expression in peripheral blood, Mean", "setting": "oral 0.05 mg/kg, 4 hrs", "result": 7.27}, {"measurement": "IL-12 mRNA expression, Fold-change from T0", "setting": "oral 0.05 mg/kg, 4 hrs", "result": 4.5, "unit": "fold"}, {"measurement": "MxA mRNA expression in peripheral blood, Mean", "setting": "oral 0.05 mg/kg, 4 hrs", "result": 2.26}, {"measurement": "MxA mRNA expression, Fold-change from T0", "setting": "oral 0.05 mg/kg, 4 hrs", "result": 1.4, "unit": "fold"}, {"measurement": "TNF-a mRNA expression in peripheral blood, Mean", "setting": "oral 0.05 mg/kg, 4 hrs", "result": 23.83}, {"measurement": "TNF-a mRNA expression, Fold-change from T0", "setting": "oral 0.05 mg/kg, 4 hrs", "result": 3.5, "unit": "fold"}, {"measurement": "2′5′-OAS mRNA expression in peripheral blood, Mean", "setting": "oral 0.05 mg/kg, 8 hrs", "result": 16.96}, {"measurement": "2′5′-OAS mRNA expression, Fold-change from T0", "setting": "oral 0.05 mg/kg, 8 hrs", "result": 4.8, "unit": "fold"}, {"measurement": "IDO mRNA expression in peripheral blood, Mean", "setting": "oral 0.05 mg/kg, 8 hrs", "result": 2.05}, {"measurement": "IDO mRNA expression, Fold-change from T0", "setting": "oral 0.05 mg/kg, 8 hrs", "result": 2.2, "unit": "fold"}, {"measurement": "IFN-a mRNA expression in peripheral blood, Mean", "setting": "oral 0.05 mg/kg, 8 hrs", "result": 12.99}, {"measurement": "IFN-a mRNA expression, Fold-change from T0", "setting": "oral 0.05 mg/kg, 8 hrs", "result": 4.2, "unit": "fold"}, {"measurement": "IFN-γ mRNA expression in peripheral blood, Mean", "setting": "oral 0.05 mg/kg, 8 hrs", "result": 4.34}, {"measurement": "IFN-γ mRNA expression, Fold-change from T0", "setting": "oral 0.05 mg/kg, 8 hrs", "result": 3.4, "unit": "fold"}, {"measurement": "IL-2 mRNA expression in peripheral blood, Mean", "setting": "oral 0.05 mg/kg, 8 hrs", "result": 1.74}, {"measurement": "IL-2 mRNA expression, Fold-change from T0", "setting": "oral 0.05 mg/kg, 8 hrs", "result": 1.5, "unit": "fold"}, {"measurement": "IL-6 mRNA expression in peripheral blood, Mean", "setting": "oral 0.05 mg/kg, 8 hrs", "result": 10.57}, {"measurement": "IL-6 mRNA expression, Fold-change from T0", "setting": "oral 0.05 mg/kg, 8 hrs", "result": 2.6, "unit": "fold"}, {"measurement": "IL-10 mRNA expression in peripheral blood, Mean", "setting": "oral 0.05 mg/kg, 8 hrs", "result": 8.48}, {"measurement": "IL-10 mRNA expression, Fold-change from T0", "setting": "oral 0.05 mg/kg, 8 hrs", "result": 3.4, "unit": "fold"}, {"measurement": "IL-12 mRNA expression in peripheral blood, Mean", "setting": "oral 0.05 mg/kg, 8 hrs", "result": 7.35}, {"measurement": "IL-12 mRNA expression, Fold-change from T0", "setting": "oral 0.05 mg/kg, 8 hrs", "result": 4.7, "unit": "fold"}, {"measurement": "MxA mRNA expression in peripheral blood, Mean", "setting": "oral 0.05 mg/kg, 8 hrs", "result": 5.93}, {"measurement": "MxA mRNA expression, Fold-change from T0", "setting": "oral 0.05 mg/kg, 8 hrs", "result": 3.8, "unit": "fold"}, {"measurement": "TNF-a mRNA expression in peripheral blood, Mean", "setting": "oral 0.05 mg/kg, 8 hrs", "result": 20.72}, {"measurement": "TNF-a mRNA expression, Fold-change from T0", "setting": "oral 0.05 mg/kg, 8 hrs", "result": 3.0, "unit": "fold"}, {"measurement": "2′5′-OAS mRNA expression in peripheral blood, Mean", "setting": "oral 0.05 mg/kg, 12 hrs", "result": 54.92}, {"measurement": "2′5′-OAS mRNA expression, Fold-change from T0", "setting": "oral 0.05 mg/kg, 12 hrs", "result": 15.6, "unit": "fold"}, {"measurement": "IDO mRNA expression in peripheral blood, Mean", "setting": "oral 0.05 mg/kg, 12 hrs", "result": 10.64}, {"measurement": "IDO mRNA expression, Fold-change from T0", "setting": "oral 0.05 mg/kg, 12 hrs", "result": 7.7, "unit": "fold"}, {"measurement": "IFN-a mRNA expression in peripheral blood, Mean", "setting": "oral 0.05 mg/kg, 12 hrs", "result": 3.82}, {"measurement": "IFN-a mRNA expression, Fold-change from T0", "setting": "oral 0.05 mg/kg, 12 hrs", "result": 1.3, "unit": "fold"}, {"measurement": "IFN-γ mRNA expression in peripheral blood, Mean", "setting": "oral 0.05 mg/kg, 12 hrs", "result": 2.64}, {"measurement": "IFN-γ mRNA expression, Fold-change from T0", "setting": "oral 0.05 mg/kg, 12 hrs", "result": 2.0, "unit": "fold"}, {"measurement": "IL-2 mRNA expression in peripheral blood, Mean", "setting": "oral 0.05 mg/kg, 12 hrs", "result": 2.43}, {"measurement": "IL-2 mRNA expression, Fold-change from T0", "setting": "oral 0.05 mg/kg, 12 hrs", "result": 2.1, "unit": "fold"}, {"measurement": "IL-6 mRNA expression in peripheral blood, Mean", "setting": "oral 0.05 mg/kg, 12 hrs", "result": 6.22}, {"measurement": "IL-6 mRNA expression, Fold-change from T0", "setting": "oral 0.05 mg/kg, 12 hrs", "result": 1.5, "unit": "fold"}, {"measurement": "IL-10 mRNA expression in peripheral blood, Mean", "setting": "oral 0.05 mg/kg, 12 hrs", "result": 7.35}, {"measurement": "IL-10 mRNA expression, Fold-change from T0", "setting": "oral 0.05 mg/kg, 12 hrs", "result": 3.0, "unit": "fold"}, {"measurement": "IL-12 mRNA expression in peripheral blood, Mean", "setting": "oral 0.05 mg/kg, 12 hrs", "result": 21.12}, {"measurement": "IL-12 mRNA expression, Fold-change from T0", "setting": "oral 0.05 mg/kg, 12 hrs", "result": 12.7, "unit": "fold"}, {"measurement": "MxA mRNA expression in peripheral blood, Mean", "setting": "oral 0.05 mg/kg, 12 hrs", "result": 18.70}, {"measurement": "MxA mRNA expression, Fold-change from T0", "setting": "oral 0.05 mg/kg, 12 hrs", "result": 12.5, "unit": "fold"}, {"measurement": "TNF-a mRNA expression in peripheral blood, Mean", "setting": "oral 0.05 mg/kg, 12 hrs", "result": 35.05}, {"measurement": "TNF-a mRNA expression, Fold-change from T0", "setting": "oral 0.05 mg/kg, 12 hrs", "result": 5.2, "unit": "fold"}, {"measurement": "2′5′-OAS mRNA expression in peripheral blood, Mean", "setting": "oral 0.05 mg/kg, 24 hrs", "result": 36.91}, {"measurement": "2′5′-OAS mRNA expression, Fold-change from T0", "setting": "oral 0.05 mg/kg, 24 hrs", "result": 11.9, "unit": "fold"}, {"measurement": "IDO mRNA expression in peripheral blood, Mean", "setting": "oral 0.05 mg/kg, 24 hrs", "result": 26.71}, {"measurement": "IDO mRNA expression, Fold-change from T0", "setting": "oral 0.05 mg/kg, 24 hrs", "result": 25.6, "unit": "fold"}, {"measurement": "IFN-a mRNA expression in peripheral blood, Mean", "setting": "oral 0.05 mg/kg, 24 hrs", "result": 2.63}, {"measurement": "IFN-a mRNA expression, Fold-change from T0", "setting": "oral 0.05 mg/kg, 24 hrs", "result": 1.0, "unit": "fold"}, {"measurement": "IFN-γ mRNA expression in peripheral blood, Mean", "setting": "oral 0.05 mg/kg, 24 hrs", "result": 1.82}, {"measurement": "IFN-γ mRNA expression, Fold-change from T0", "setting": "oral 0.05 mg/kg, 24 hrs", "result": 1.2, "unit": "fold"}, {"measurement": "IL-2 mRNA expression in peripheral blood, Mean", "setting": "oral 0.05 mg/kg, 24 hrs", "result": 3.64}, {"measurement": "IL-2 mRNA expression, Fold-change from T0", "setting": "oral 0.05 mg/kg, 24 hrs", "result": 3.2, "unit": "fold"}, {"measurement": "IL-6 mRNA expression in peripheral blood, Mean", "setting": "oral 0.05 mg/kg, 24 hrs", "result": 4.30}, {"measurement": "IL-6 mRNA expression, Fold-change from T0", "setting": "oral 0.05 mg/kg, 24 hrs", "result": 1.1, "unit": "fold"}, {"measurement": "IL-10 mRNA expression in peripheral blood, Mean", "setting": "oral 0.05 mg/kg, 24 hrs", "result": 6.08}, {"measurement": "IL-10 mRNA expression, Fold-change from T0", "setting": "oral 0.05 mg/kg, 24 hrs", "result": 2.3, "unit": "fold"}, {"measurement": "MxA mRNA expression in peripheral blood, Mean", "setting": "oral 0.05 mg/kg, 24 hrs", "result": 117.33}, {"measurement": "MxA mRNA expression, Fold-change from T0", "setting": "oral 0.05 mg/kg, 24 hrs", "result": 69.3, "unit": "fold"}, {"measurement": "TNF-a mRNA expression in peripheral blood, Mean", "setting": "oral 0.05 mg/kg, 24 hrs", "result": 20.53}, {"measurement": "TNF-a mRNA expression, Fold-change from T0", "setting": "oral 0.05 mg/kg, 24 hrs", "result": 3.2, "unit": "fold"}, {"measurement": "2′5′-OAS mRNA expression in peripheral blood, Mean", "setting": "oral 0.5 mg/kg, 4 hrs", "result": 33.05}, {"measurement": "2′5′-OAS mRNA expression, Fold-change from T0", "setting": "oral 0.5 mg/kg, 4 hrs", "result": 6.5, "unit": "fold"}]}
